Measured values published in publication PMC11240954 (International Journal of Molecular Sciences, 2024).
Where two headings read alike, the source gives them in different places. Peptide text beside a SMILES is read from it.

Tests used:
[1] = test system: Influenza A Virus (H1N1)
[2] = test system: Influenza A Virus (H3N2)
[3] = test system: Human Adenovirus-5
[4] = test system: Murine Norovirus-1
[5] = test system: adenovirus; conditions: 111 µM LL-37 ref 60; cited from earlier work
[6] = in vitro; conditions: dog
[7] = in vitro; conditions: African green monkey
[8] = test system: Influenza A Virus (H1N1); assay: microbe, parasite or virus in culture; conditions: H1N1, MDCK, 3 h, read-out: IC50 Influenza A Virus (H1N1)/MDCK
[9] = test system: Influenza A Virus (H3N2); assay: microbe, parasite or virus in culture; conditions: H3N2, MDCK, 3 h, read-out: IC50 Influenza A Virus (H3N2)/MDCK
[10] = test system: Human Adenovirus-5; assay: microbe, parasite or virus in culture; conditions: Human mastadenovirus C, Vero, 3 h, read-out: IC50 Human Adenovirus-5/Vero
[11] = test system: Murine Norovirus-1; assay: microbe, parasite or virus in culture; conditions: Norwalk virus, in Mus musculus, 3 h, read-out: IC50 Murine Norovirus-1/Raw 246.7
[12] = test system: MDCK cells; conditions: dog
[13] = test system: Vero cells; conditions: African green monkey
[14] = Circular dichroism conformational analysis; assay type: physicochemical; conditions: 125, 250, 500 µM
Description: Circular dichroism (CD) analysis was conducted using the Jasco J-1500 spectropolarimeter to assess the secondary structure of peptides and mimics. The samples were placed in a quartz cuvette with a path length of 0.1 cm (Fisher brand, Thermo Fisher Scientific Aust Pty Ltd.). Spectra were recorded in the range of 185–260 nm at a scan speed of 200 nm/min, averaging 4 scans. The impact of the solvents milliQ water or 30 mM SDS on Mel4 and mimic 758 was evaluated at three concentrations: 500 µM, 250 µM, and 125 µM. Data were averaged, and the spectrum of a sample-free control was subtracted.

[15] = test system: H1N1; assay: Transmission electron microscopy of treated virus; design: species or system influenza virus H1N1 A/PR/8/34; conditions: TEM, 2 h exposure; untreated 120 nm
Description: (§1) The viruses were exposed to the peptide/mimics for 2 h at 37 °C. Following this, 10 µL of the treated mixture was applied onto a glow-discharged carbon-coated 200 mesh copper grid and left to evaporate for 5 min. Subsequently, the sample was stained with 2% phosphotungstic acid (pH 4.5) for 1 min to enhance contrast. After air-drying, the grids were examined using an FEI Tecnai G2 20 transmission electron microscope (TEM).

[16] = test system: H3N2 virus; assay: Transmission electron microscopy of treated virus; design: species or system influenza virus H3N2 A/Hong Kong/8/68; conditions: 2 h exposure
Description: as §1

[17] = read-out: IC50 Human Adenovirus-5/Vero

Row | SMILES | SI Influenza A Virus (H1N1)/MDCK [1] | SI Influenza A Virus (H3N2)/MDCK [2] | CC50 ([6]; CC50 (H1N1/MDCK)) | CC50 ([6]; CC50 (H3N2/MDCK)) | IC50 [8] | IC50 [9] | IC50 [10] | IC50 [11] | further results
1 | CC[C@H](C)[C@H](NC(=O)[C@H](CCCCN)NC(=O)[C@H](CCC(=O)O)NC(=O)[C@H](CCCCN)NC(=O)[C@H](CO)NC(=O)[C@H](CCCCN)NC(=O)[C@H](CCCNC(=N)N)NC(=O)[C@H](Cc1ccccc1)NC(=O)[C@H](Cc1ccccc1)NC(=O)[C@H](CC(=O)O)NC(=O)CNC(=O)[C@H](CC(C)C)NC(=O)[C@@H](N)CC(C)C)C(=O)NCC(=O)N[C@@H](CCCCN)C(=O)N[C@@H](CCC(=O)O)C(=O)N[C@@H](Cc1ccccc1)C(=O)N[C@@H](CCCCN)C(=O)N[C@@H](CCCNC(=N)N)C(=O)N[C@H](C(=O)N[C@H](C(=O)N[C@@H](CCC(N)=O)C(=O)N[C@@H](CCCNC(=N)N)C(=O)N[C@H](C(=O)N[C@@H](CCCCN)C(=O)N[C@@H](CC(=O)O)C(=O)N[C@@H](Cc1ccccc1)C(=O)N[C@@H](CC(C)C)C(=O)N[C@@H](CCCNC(=N)N)C(=O)N[C@@H](CC(N)=O)C(=O)N[C@@H](CC(C)C)C(=O)N[C@H](C(=O)N1CCC[C@H]1C(=O)N[C@@H](CCCNC(=N)N)C(=O)N[C@H](C(=O)N[C@@H](CCC(=O)O)C(=O)N[C@@H](CO)C(=O)O)[C@@H](C)O)C(C)C)[C@@H](C)CC)C(C)C)[C@@H](C)CC [LL-37, reference compound] |  |  |  |  |  |  |  |  | IC50 ([1]; Virus, 3 h): > 500 µM; IC50 ([2]; Virus, 3 h): > 500 µM; IC50 Human Adenovirus-5/Vero [3]: no activity; IC50 ([3]; 3 h): > 125 µM; IC50 ([4]; 3 h): 4.2 µM; effect on adenovirus [5]: no effect
2 | CC[C@H](C)[C@H](NC(=O)[C@H](Cc1c[nH]c2ccccc12)NC(=O)[C@H](CO)NC(=O)[C@@H](NC(=O)[C@H](CC(C)C)NC(=O)[C@@H](N)[C@@H](C)O)[C@@H](C)CC)C(=O)N[C@@H](CCCCN)C(=O)N[C@@H](CC(N)=O)C(=O)N[C@@H](CCCCN)C(=O)N[C@@H](CCCNC(=N)N)C(=O)N[C@@H](CCCCN)C(=O)N[C@@H](CCC(N)=O)C(=O)N[C@@H](CCCNC(=N)N)C(=O)N1CCC[C@H]1C(=O)N[C@@H](CCCNC(=N)N)C(=O)N[C@H](C(=O)N[C@@H](CO)C(=O)N[C@@H](CCCNC(=N)N)C(=O)N[C@@H](CCCNC(=N)N)C(=O)N[C@@H](CCCNC(=N)N)C(=O)N[C@@H](CCCNC(=N)N)C(=O)N[C@@H](CCCNC(=N)N)C(=O)N[C@@H](CCCNC(=N)N)C(=O)NCC(=O)NCC(=O)N[C@@H](CCCNC(=N)N)C(=O)N[C@@H](CCCNC(=N)N)C(=O)N[C@@H](CCCNC(=N)N)C(=O)N[C@@H](CCCNC(=N)N)C(=O)O)C(C)C [Melimine] (H-TLISWIKNKRKQRPRVSRRRRRRGGRRRR-OH) |  |  |  |  |  |  |  |  | IC50 ([1]; Virus, 3 h): > 500 µM; IC50 ([2]; Virus, 3 h): > 500 µM; IC50 ([3]; 3 h): > 125 µM; IC50 ([4]; 3 h): 4.8 µM; CC50 [6]: 28.1 µM; CC50 at 24 h [7]: 14.5 µM
3 | NCCNC(=Nc1ccccc1)NCCNC(=O)C(Cc1ccccc1)NC(=O)c1cc(Br)ccc1NC(=O)c1ccc2ccccc2c1 (stereo not drawn) [compound 1096] | 2.1 | 1.9 | 47.2 µM | 47.2 µM | 22.2 µM | 24 µM | > 62.5 µM | > 62.5 µM | 
4 | NCCN=C(NCCN)NCCNC(=O)C(Cc1c[nH]c2ccccc12)NC(=O)c1cc(Br)ccc1NC(=O)c1ccc2ccccc2c1 (stereo not drawn) [compound 1083] | 8.7 | 9.05 | 250 µM | 250 µM | 28.5 µM | 27.7 µM | 47.2 µM | > 62.5 µM | IC50 [3, 17]: 45.1 µM
5 | NCCCCC(N)C(=O)NCCNC(=O)C(Cc1c[nH]c2ccccc12)NC(=O)c1cc(Br)ccc1NC(=O)c1ccc(-c2ccccc2)cc1 (stereo not drawn) [4-BIPL] | 1.2 | 1.2 |  |  |  |  |  |  | IC50 ([1]; read-out: IC50 Influenza A Virus (H1N1)/MDCK): 10.3 µM; IC50 ([2]; read-out: IC50 Influenza A Virus (H3N2)/MDCK): 10.4 µM; IC50 [3, 17]: > 62.5 µM; IC50 ([4]; read-out: IC50 Murine Norovirus-1/Raw 246.7): > 62.5 µM; CC50 [12]: 12.8 µM; CC50 [13]: 38.8 µM
6 | NCCCCC(N)C(=O)NCCNC(=O)C(Cc1c[nH]c2ccccc12)NC(=O)c1cc(Br)ccc1NC(=O)c1ccc2ccccc2c1 (stereo not drawn) [NAPL] | 10.6 | 10.6 | 112 µM | 112 µM | 10.5 µM | 10.5 µM | 59.3 µM | > 62.5 µM | 
7 | NCCNC(=O)C(Cc1c[nH]c2ccccc12)NC(=O)c1cc(-c2ccccc2-c2ccccc2)ccc1N (stereo not drawn) [Sau-22] | 11.4 | 14.8 | 79.4 µM | 79.4 µM | 6.93 µM | 5.34 µM | > 62.5 µM | > 62.5 µM | 
8 | NCCNC(=Nc1ccccc1)NCCNC(=O)C(Cc1c[nH]c2ccccc12)NC(=O)c1cc(Br)ccc1NC(=O)c1ccc2ccccc2c1 (stereo not drawn) [compound 758] | 11.9 | 15.8 | 147 µM | 147 µM | 12.3 µM | 9.3 µM | > 62.5 µM | > 62.5 µM | secondary structure by CD in SDS ([14]; 30 mM SDS (membrane mimetic)): beta sheet-like structure; secondary structure by CD in water ([14]; milliQ water): beta sheet-like structure
9 | N=C(N)NCCNC(=O)C(Cc1ccccc1)NC(=O)c1cc(Br)ccc1NC(=O)c1ccc2ccccc2c1 (stereo not drawn) [compound 1091] | 5.5 | 5.2 | 128 µM | 128 µM | 23.1 µM | 24.3 µM | > 62.5 µM | > 62.5 µM | 
10 | N=C(N)NCCC[C@H](NC(=O)[C@H](CCCNC(=N)N)NC(=O)[C@H](CCCNC(=N)N)NC(=O)[C@H](CCCNC(=N)N)NC(=O)CNC(=O)CNC(=O)[C@H](CCCNC(=N)N)NC(=O)[C@H](CCCNC(=N)N)NC(=O)[C@H](CCCNC(=N)N)NC(=O)[C@H](CCCNC(=N)N)NC(=O)[C@H](CCCNC(=N)N)NC(=O)[C@H](CCCNC(=N)N)NC(=O)[C@H](CCCCN)NC(=O)[C@H](CCCNC(=N)N)NC(=O)[C@H](CCCCN)NC(=O)[C@H](CC(N)=O)NC(=O)[C@@H](N)CCCCN)C(=O)O [Mel4] (H-KNKRKRRRRRRGGRRRR-OH) |  |  |  |  |  |  |  |  | IC50 ([1]; Virus, 3 h): > 500 µM; IC50 ([2]; Virus, 3 h): > 500 µM; IC50 ([3]; 3 h): 47.4 µM; IC50 ([4]; 3 h): 8.6 µM; CC50 [6]: 12.7 µM; CC50 at 24 h [7]: 47.6 µM
11 | NCCNC(=O)C(Cc1c[nH]c2ccccc12)NC(=O)c1cc(-c2ccc3ccccc3c2)ccc1N (stereo not drawn) [compound 610] | 14.1 | 9 | 33.3 µM | 33.3 µM | 2.35 µM | 3.7 µM | > 62.5 µM | > 62.5 µM | average particle size of the virus after treatment [15]: 48 nm; effect on virus particle (TEM) [16]: reduction in size and disruption to the envelop and spike proteins
